# Legend:
# [1] = Toxic dose in DBA/2 mice; Values ranges from: 59.6-132; format: toxicity; conditions: DBA/2, mouse, in vivo
# [2] = Anticonvulsant activity against audiogenic seizures in DBA/2 mice expressed as ED50 values in tonic phase; Values ranges from: 16.1-31.5; format: functional; conditions: Mus musculus
# [3] = Anticonvulsant activity against audiogenic seizures in DBA/2 mice expressed as ED50 values in clonic phase; Values ranges from: 22.0-35.1; format: functional; conditions: Mus musculus
# [4] = Relative lipophilicity expressed as Rm value; format: physicochemical; conditions: octanol/water
# [5] = Ratio between TD50 and ED50 from the clonic phase of audiogenic seizures in mice; format: ADME, organism-based; conditions: mouse, in vivo; read-out: Protective index
# [6] = Anticonvulsant activity against audiogenic seizures in DBA/2 mice expressed as ED50 values in clonic phase; format: functional; conditions: Mus musculus
# [7] = Ratio between TD50 and ED50 from the clonic phase of audiogenic seizures; format: ADME; conditions: read-out: Protective index
# [8] = Anticonvulsant activity against audiogenic seizures in DBA/2 mice expressed as ED50 values in tonic phase; format: functional; conditions: Mus musculus
# [9] = Toxic dose in DBA/2 mice; format: toxicity; conditions: DBA/2, mouse, in vivo
# [10] = Toxic dose in DBA/2 mice; Values ranges from: 72.4-135; format: toxicity; conditions: DBA/2, mouse, in vivo
# [11] = Anticonvulsant activity against audiogenic seizures in DBA/2 mice expressed as ED50 values in tonic phases; Values ranges from: 4.02-19.9; format: functional; conditions: Mus musculus
# [12] = Toxic dose in DBA/2 mice; Values ranges from: 36.1-82.9; format: toxicity; conditions: DBA/2, mouse, in vivo
# [13] = Anticonvulsant activity against audiogenic seizures in DBA/2 mice expressed as ED50 values in clonic phase; Values ranges from: 6.52-35.4; format: functional; conditions: Mus musculus
# [14] = Anticonvulsant activity against audiogenic seizures in DBA/2 mice expressed as ED50 values in tonic phase; Values ranges from: 19.4-50.6; format: functional; conditions: Mus musculus
# [15] = Toxic dose in DBA/2 mice; Values ranges from: 74.8-169; format: toxicity; conditions: DBA/2, mouse, in vivo
# [16] = Anticonvulsant activity against audiogenic seizures in DBA/2 mice expressed as ED50 values in clonic phase; Values ranges from: 24.4-55.1; format: functional; conditions: Mus musculus
SMILES,Rm [4],selectivity ratio [5],ED50 [6],selectivity ratio [7],ED50 [8],TD50 [9],other results
Sc1nnc(-c2ccccc2)c2cc3c(cc12)OCO3,0.05,3.2,–,–,–,–,TD50 [1]: 89 µmol/kg; ED50 [2]: 22.5 µmol/kg; ED50 [3]: 27.8 µmol/kg
Nc1ccc(C2=NNC(=O)Cc3cc4c(cc32)OCO4)cc1,-0.43,4.5,–,–,–,–,TD50 [10]: 99.1 µmol/kg
CCCCNC(=O)n1nc(-c2cccc(N)c2)c2cc3c(cc2c1=O)OCO3,0.01,–,31.6 µmol/kg,3.2,22.4 µmol/kg,101 µmol/kg,–
Nc1ccc(-c2nnc(S)c3cc4c(cc23)OCO4)cc1,-0.205,3.6,–,–,–,–,ED50 [11]: 8.94 µmol/kg; TD50 [12]: 54.7 µmol/kg; ED50 [13]: 15.2 µmol/kg
Oc1nnc(-c2ccccc2)c2cc3c(cc12)OCO3,-0.158,3.1,–,–,–,–,ED50 [14]: 31.3 µmol/kg; TD50 [15]: 112 µmol/kg; ED50 [16]: 36.7 µmol/kg

# Continued, in another order:
Rm [4],SMILES,selectivity ratio [5],ED50 [6],selectivity ratio [7],ED50 [8],TD50 [9],other results
-0.126,CCCNC(=O)n1nc(-c2ccc(N)cc2)c2cc3c(cc2c1=O)OCO3,–,15.8 µmol/kg,3.3,6.82 µmol/kg,52.8 µmol/kg,–
0.101,CCCCCNC(=O)n1nc(-c2ccc(N)cc2)c2cc3c(cc2c1=O)OCO3,–,13.2 µmol/kg,4.3,5.34 µmol/kg,56.6 µmol/kg,–
-0.364,CNC(=O)n1nc(-c2ccc(N)cc2)c2cc3c(cc2c1=O)OCO3,–,23.4 µmol/kg,2.5,16.8 µmol/kg,59.4 µmol/kg,–
